{"source": "paper PMC10609173", "about": "“Antiplasmodial and Antileishmanial Activities of a New Limonoid and Other Constituents from the Stem Bark of Khaya senegalensis” (Molecules, 2023)", "key": {"[1]": {"test_system": "promastigote form of Leishmania donovani (1S(MHOM/SD/62/1S))", "assay": "Antileishmanial resazurin-based assay on promastigotes", "type": "cell-based", "method": "A T-75 cm^2 cell culture flask was filled with complete Medium 199 [M199 supplemented with 10% heat-inactivated fetal bovine serum (HIFBS) and 100 IU/mL penicillin/streptomycin (Sigma, Darmstadt, Germany)] and used to grow the promastigote forms of Leishmania donovani. Every 72 h, flasks were subcultured and incubated at 28 °C.\nThe resazurin-based assay was used to evaluate the antileishmanial activity of the extract (100 μg/mL–0.16 μg/mL), major fractions (100 μg/mL–0.16 μg/mL), and isolated compounds (50 μg/mL–0.08 μg/mL) against the promastigote form of Leishmania donovani. Briefly, 10 μL of inhibitors at various triplicate doses (as prescribed for the antiplasmodial assay) were added to 90 μL of promastigotes from a logarithmic phase culture at a density of 4.10^5 parasites/mL. The plates were incubated for 28 h at 28 °C, and 10 μL of resazurin solution (Sigma, Darmstadt, Germany) was added. Amphotericin B (Sigma, Darmstadt, Germany) (10 μg–0.016 μg/mL) and 0.1% DMSO-treated wells were used as the […], respectively. After a further 44 h of incubation, plates were read using a Magelan Infinite M200 fluorescence plate reader (Tecan, Männedorf, Switzerland) at excitation and emission wavelengths of 530 and 590 nm, respectively.\n(§1) The resulting fluorescence readings were used to calculate the growth inhibition percentages relative to the negative control for each sample and for each of the tested doses. GraphPad Prism 8.0 software was used to generate concentration-response curves from the nonlinear regression fit to determine the median inhibitory or cytotoxic concentration (IC50/CC50). The resistance index (RI) for antiplasmodial tests was calculated as the ratio between the samples’ IC50 values for the chloroquine-sensitive strain 3D7 and the multiresistant strain Dd2 [69]. Inhibitors with an RI value below 1 were considered to act preferentially on the resistant strain. Based on each inhibitor’s antiparasitic efficacy (IC50) and cell toxicity (CC50), selectivity indices (SI) were calculated [SI = CC50 (RAW)/IC50 (Parasites)]. Samples were classified as poorly toxic to RAW cells if their SI values were greater than 10 [70]."}, "[2]": {"set-up": "method as in PMID 36249737, PMID 20162079", "settings": "400 mg/kg; from leaf extract of Osyris quadripartita; cited from earlier work"}, "[3]": {"assay": "Cytotoxicity assay (resazurin) on RAW 264.7 macrophages", "type": "cell-based, murine", "settings": "mouse, RAW 264.7 macrophage cells; RAW 264.7 macrophages, 48 h incubation, resazurin; read-out: Cytotoxicity on RAW 264.7 Cells CC50 ± SD", "method": "The murine macrophage RAW 264.7 cell line was grown in DMEM (Dulbecco’s modified Eagle’s medium) containing 1% penicillin-streptomycin, 1% nonessential amino acids (NEA), and 10% HIFBS at 37 °C, and 5% CO2 in a humidified environment. A reverse Etaluma fluorescence microscope was used to view the cells every day, and the growth media was replaced every 72 h. At 80% confluence, cells were isolated using 0.25% Trypsine-EDTA (Gibco, MT, USA).\nThe murine macrophages, RAW 264.7 cells, were plated into a 96-well cell culture treated flat-bottomed plate ([…], Inc., Newton, NC 28658, USA) at a density of 10 × 10^4 cells/100 μL/well and incubated overnight to enable cell adhesion. A fresh complete medium containing serially diluted concentrations of crude extract, fractions, and compounds was used to replace the previous medium. The final assay concentration values for extracts/fractions and compounds varied from 400 μg/mL to 0.8 μg/mL and 100–0.16 μg/mL, respectively. Podophyllotoxin (Sigma-Aldrich, Munich, Germany) was used as a positive control at a maximum dose of 10 μM. After 48 h of incubation, 10 μL of resazurin solution (0.15 mg/mL dissolved in PBS) was added to each well, and the plates were incubated for an additional 4 h. Fluorescence data were finally recorded with a Magellan Infinite M200 plate reader (Tecan, Germany) at excitation and emission wavelengths of 530 nm and 590 nm, respectively.\nas §1"}, "[4]": {"test_system": "multidrug-resistant Dd2 strain of Plasmodium falciparum (PfDd2)", "assay": "Antiplasmodial SYBR Green I fluorescence assay, PfDd2 strain", "type": "cell-based", "description": "(§2) The parasite strains used in this study are continuously cultured at the Antimicrobial and Biocontrol Agents Unit of the University of Yaoundé I, and were graciously provided by BEI Resources (https://www.beiresources.org (accessed on 16 February 2019)). They comprise the Leishmania donovani strain (1S(MHOM/SD/62/1S), the multiresistant (PfDd2), and the chloroquine-sensitive (Pf3D7-(MRA-102)) strains of Plasmodium falciparum. RPMI 1640 media supplemented with 0.2% sodium bicarbonate (Sigma Aldrich, Billings, MT, USA), 0.5% Albumax II (Gibco), 1% hypoxanthine 100X (Gibco, Billings, MT, USA), 25 mM HEPES, and 0.04% gentamicin (Sigma Aldrich) was used to sustain P. falciparum strains in sterile petri dishes. Fresh red blood cells from healthy O^+ human volunteers were also added to the medium. These cells were suspended at 4% hematocrit (v/v) and incubated at 37 °C in a humidified environment with 5% CO2. To regularly maintain the culture, fresh medium was added to the culture every day. Thin blood smears stained with 10% Giemsa were used to microscopically monitor cell-cycle transition and parasitemia under immersion oil.\n(§3) The antiplasmodial efficacy of the samples was evaluated using the SYBR Green I-based fluorescence assay, as previously reported by Smilkstein et al., on a sorbitol-synchronized ring stage culture of Plasmodium falciparum (PfDd2 and Pf3D7 strains). The test relies on the development of intense fluorescence following SYBR green binding to the exposed DNA found in wells containing healthy cells. Ninety microliters of parasites prepared with 1% hematocrit and 2% parasitemia and 10 μL of test sample extracts, fractions, isolated chemicals, chloroquine, and artemisinin were each added in triplicate into wells of a flat-bottomed microplate. The final test concentration values for the samples varied from 50 μg/mL-0.08 μg/mL and 100 μg/mL-0.16 μg/mL for extract/fractions. Following a 72 h incubation at 37 °C, 100 μL of SYBR Green I solution prepared with lysis buffer (0.2 μL of 10,000 SYBR Green I per mL of lysis buffer) made of EDTA (5 mM), Tris (20 mM; pH 7.5), Triton X-100 (0.08%; v/v), and saponin (0.008%; m/v) was added to each well. Fluorescence measurements were taken using an Infinite M200 microplate reader (Tecan, MT, USA) at emission and excitation wavelengths of 538 and 485 nm, respectively.\nas §1"}, "promastigote": {"test_system": "promastigote", "set-up": "method as in PMID 24949478", "settings": "isolate from Canarium patentinervium; cited from earlier work"}, "[5]": {"test_system": "chloroquine-sensitive 3D7 strain of Plasmodium falciparum (Pf3D7)", "assay": "Antiplasmodial SYBR Green I fluorescence assay, Pf3D7 strain", "type": "cell-based", "settings": "3D7, Pf3D7 strain, ring stage, 72 h, read-out: Antiplasmodial Activity Pf3D7 IC50 ± SD", "description": "as §2, §3, §1"}, "[6]": {"set-up": "method as in PMID 30663371", "settings": "limonoid from Meliaceae; cited from earlier work"}, "[7]": {"set-up": "method as in PMID 30663371", "settings": "limonoid from Meliaceae; cited from earlier work", "remark": "listed apart in the source"}}, "data": [{"compound": "Oc1cc(O)c2c(c1)O[C@H](c1ccc(O)c(O)c1)[C@@H](O)C2", "note": "[Catechin (9), catechin]", "values": [{"measurement": "IC50", "setting": "[1]; Leishmania donovani, L. donovani promastigotes, 28 °C, read-out: Antileishmanial Activity IC50 ± SD", "value": "27 ± 0.7", "unit": "µg/mL"}, {"measurement": "Antileishmanial Selectivity (SI)", "setting": "[1]; SI = CC50 against macrophages/IC50 against promastigotes", "value": ">14.83"}, {"measurement": "antimalarial effect, suppression value", "setting": "[2]", "value": 64.26, "unit": "%"}, {"measurement": "CC50 at 48 h", "setting": "[3]", "value": "> 400", "unit": "µg/mL"}, {"measurement": "Antiplasmodial Activity PfDd2 IC50 ± SD", "setting": "[4]; PfDd2 strain, ring stage, 72 h", "value": "2.93 ± 0.02", "unit": "µg/mL"}, {"measurement": "IC50", "setting": "[4]; Plasmodium falciparum, DD2, 72 h, read-out: Antiplasmodial Activity PfDd2 IC50 ± SD, PfDd2 strain, ring stage, 72 h", "value": 2.95, "unit": "µg/mL"}, {"measurement": "IC50, antipromastigote activity", "setting": "promastigote", "value": "478.93 ± 0.28", "unit": "µg/mL"}, {"measurement": "IC50", "setting": "[5]", "value": "111.96 ± 0.04", "unit": "µg/mL"}]}, {"compound": "CC(=O)O[C@@H]1C[C@H]2C(C)(C)OC(=O)C=C[C@]2(C)[C@H]2CC[C@@]3(C)[C@@H](c4ccoc4)OC(=O)[C@H]4O[C@]43[C@@]21C", "note": "[7α-obacunyl acetate]", "values": [{"measurement": "IC50, antiplasmodial activity", "setting": "[6]", "value": 5.14, "unit": "µg/mL"}]}, {"compound": "trigilgianin", "values": [{"measurement": "IC50, antileishmanial activity", "setting": "[7]", "value": 6.044, "unit": "µg/mL"}]}]}
